PubChem BioAssay AID2060497 (Molecular Pharmacology Branch, DTP, NCI, 2025)

System: 317291-083-R-J1-PDC complex spheroids, viability
Experiment: Anticancer human tumor 317291-083-R-J1-PDC patient-derived soft tissue sarcoma cell line growth inhibition [GQUAD]
Conditions: for IC50: curve of first compound; for viability, T/C: stronger effect = lower value
From the text: DNA G-quadruplex Stabilizer Agents in Combinations in Complex Spheroids
A high-throughput screen of multi-cell type tumor spheroids was designed to identify active combinations of DNA G-quadruplex stabilizer agents and targeted small molecules. Complex spheroids include a stromal component modeled by human endothelial cells (HUVEC) and fibroblasts modeled by human mesenchymal stem cells (MSCs). The concentration ranges selected for each drug and investigational agent were based upon clinically achievable concentrations if the clinical Cmax of the agent was known.
Compounds. The drugs and investigational agents: pidnarulex (CX-5461; NSC782164), APTO-253 (NSC789042), BRACO-19 (NSC847499), peposertib (NSC802822), ceralasertib (NSC780249), elimusertib (NSC800525), camonsertib (NSC841442), AZD-1390 (NSC803789), olaparib (NSC753686), talazoparib (NSC767125), ART-558 (NSC835418), sotorasib (NSC818433), MRTX-1133 (NSC836407), SN-38 (NSC673596), topotecan (NSC609699), etoposide (NSC141540), doxorubicin (NSC123127), gemcitabine (NSC613327), 5-fluorouracil (NSC19893), paclitaxel (NSC125973), vemurafenib (NSC761431), panobinostat (NSC761190), R-306465 (JNJ-16241199; NSC773264), adavosertib (NSC754352), TP-3654 (NSC805149), carboplatin (NSC241240), KSQ-4279 (NSC840948), and staurosporine (NSC755774) were obtained from the National Cancer Institute (NCI) Developmental Therapeutics Program Chemical Repository (34). The FDA-approved anticancer drug set is available from the NCI Developmental Therapeutics Program. […] The stock solutions were prepared in dimethyl sulfoxide (DMSO, Sigma-Aldrich, St. Louis, MO, cat. D2650) at 800-fold the tested concentration and stored at -70 degrees C prior to their use. All drugs and investigational agents were tested over a range starting from a high concentration at or near the clinical Cmax and decreasing in half-log increments. If the clinical Cmax for an agent had not been determined, the highest concentration tested was 10 microM.
2.3 Cell Culture. All cells were maintained in an incubator at 37 degrees C and 5% CO2 with 95% humidity. The PDC lines were cultured according to standard operating procedures established by the NCI PDMR. All PDCs were thawed and cultured in Matrigel-coated flasks prepared with a working solution of 1X Ham's F-12 nutrient mix, without supplementation (Invitrogen, cat. 11765054), 100 U/mL penicillin-streptomycin (Invitrogen, cat. 15140122), and 2.5% Matrigel (Corning Inc., cat. 354248) for the first three passages. The 857933-349-R-J2-PDC line was cultured in 6C/Colon 1B media, which includes advanced DMEM/F-12 (Thermo Fisher Scientific, cat. 12634028), 10 mM HEPES (Thermo Fisher Scientific, cat. 15630080), 1X GlutaMAX supplement (Thermo Fisher Scientific, cat. 35050061), 0.1 mg/mL primocin (InvivoGen, cat. ant-pm-2), 10% defined fetal bovine serum, heat inactivated (HyClone Laboratories Inc., cat. SH30070.03HI), 50% L-WRN conditioned media (ATCC, cat. CRL-3276), 1.25 mM N-Acetyl-L-cysteine (Sigma-Aldrich, cat. A9165), 10 mM nicotinamide (Sigma-Aldrich, cat. N0636), 1X B-27 supplement (Thermo Fisher Scientific, cat. 17504044), 1X N-2 supplement (Thermo Fisher Scientific, cat. 17502048), 10 microM Y-27632 dihydrochloride (Tocris Bioscience, cat. 1254), and 50 ng/mL human EGF recombinant protein (Thermo Fisher Scientific, cat. PHG0311). The 485176-168-R4-J1-PDC line was cultured in Panc media, which includes all 6C/Colon 1B media components plus 100 ng/mL human FGF-10 (Thermo Fisher Scientific, cat. 100-26), 500 nM SB-431542 (Selleckchem, cat. S1067), and gastrin (Tocris, cat. 3006).
[…]

[1] = second compound 0.0316 µM, first compound 0.0316 µM
[2] = second compound 0.0316 µM, first compound 0.316 µM
[3] = second compound 0.1 µM, first compound 0.0316 µM
[4] = second compound 0.1 µM, first compound 0.316 µM
[5] = second compound 0.316 µM, first compound 0.0316 µM
[6] = second compound 0.316 µM, first compound 0.316 µM
[7] = second compound 1 µM, first compound 0.0316 µM
[8] = second compound 1 µM, first compound 0.316 µM
[9] = second compound 3.16 µM, first compound 0.0316 µM
[10] = second compound 3.16 µM, first compound 0.316 µM
[11] = second compound 10 µM, first compound 0.0316 µM
[12] = second compound 10 µM, first compound 0.316 µM
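Also: spheroids exposed to compounds for one week before readout.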
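For viability, T/C in this document: percent viability relative to DMSO vehicle wells taken as 100%.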

COc1ncnc(C2CC2)c1-c1ncc2cnn(Cc3ccc(-c4nc(C(F)(F)F)cn4C(C)C)cc3)c2n1 + Cc1[nH]c2ccc(F)cc2c1-c1nc2c3cccnc3c3ncccc3c2[nH]1
IC50 (second compound 0.0316 µM): > 10000 nM
IC50 (second compound 0.1 µM): > 10000 nM
IC50 (second compound 0.316 µM): 200 nM
IC50 (second compound 1 µM): < 31.6 nM
IC50 (second compound 3.16 µM): < 31.6 nM
IC50 (second compound 10 µM): < 31.6 nM
viability, T/C [1]: 110%
viability, T/C (second compound 0.0316 µM, first compound 0.1 µM): 77.8%
viability, T/C [2]: 84.5%
viability, T/C (second compound 0.0316 µM, first compound 1 µM): 72.2%
viability, T/C (second compound 0.0316 µM, first compound 3.16 µM): 64.3%
viability, T/C (second compound 0.0316 µM, first compound 10 µM): 92.3%
viability, T/C [3]: 85.7%
viability, T/C (second compound 0.1 µM, first compound 0.1 µM): 96.5%
viability, T/C [4]: 68.3%
viability, T/C (second compound 0.1 µM, first compound 1 µM): 63.7%
viability, T/C (second compound 0.1 µM, first compound 3.16 µM): 93.4%
viability, T/C (second compound 0.1 µM, first compound 10 µM): 65%
viability, T/C [5]: 63.3%
viability, T/C (second compound 0.316 µM, first compound 0.1 µM): 52.8%
viability, T/C [6]: 50.4%
viability, T/C (second compound 0.316 µM, first compound 1 µM): 37.2%
viability, T/C (second compound 0.316 µM, first compound 3.16 µM): 46%
viability, T/C (second compound 0.316 µM, first compound 10 µM): 35.2%
viability, T/C [7]: 41.4%
viability, T/C (second compound 1 µM, first compound 0.1 µM): 37.9%
viability, T/C [8]: 35.3%
viability, T/C (second compound 1 µM, first compound 1 µM): 41.2%
viability, T/C (second compound 1 µM, first compound 3.16 µM): 40.5%
viability, T/C (second compound 1 µM, first compound 10 µM): 39.8%
viability, T/C [9]: 35.1%
viability, T/C (second compound 3.16 µM, first compound 0.1 µM): 27.6%
viability, T/C [10]: 27.1%
viability, T/C (second compound 3.16 µM, first compound 1 µM): 23.3%
viability, T/C (second compound 3.16 µM, first compound 3.16 µM): 23.2%
viability, T/C (second compound 3.16 µM, first compound 10 µM): 30.5%
viability, T/C [11]: 35.8%
viability, T/C (second compound 10 µM, first compound 0.1 µM): 35.8%
viability, T/C [12]: 31.1%
viability, T/C (second compound 10 µM, first compound 1 µM): 33.8%
viability, T/C (second compound 10 µM, first compound 3.16 µM): 33.5%
viability, T/C (second compound 10 µM, first compound 10 µM): 28.3%

Cn1ncnc1[C@H]1c2n[nH]c(=O)c3cc(F)cc(c23)N[C@@H]1c1ccc(F)cc1 + Cc1[nH]c2ccc(F)cc2c1-c1nc2c3cccnc3c3ncccc3c2[nH]1
IC50 (second compound 0.0316 µM): > 316 nM
IC50 (second compound 0.1 µM): > 316 nM
IC50 (second compound 0.316 µM): > 316 nM
IC50 (second compound 1 µM): > 316 nM
IC50 (second compound 3.16 µM): > 316 nM
IC50 (second compound 10 µM): > 316 nM
viability, T/C (second compound 0.0316 µM, first compound 0.000999 µM): 104%
viability, T/C (second compound 0.0316 µM, first compound 0.00316 µM): 101%
viability, T/C (second compound 0.0316 µM, first compound 0.00999 µM): 120%
viability, T/C [1]: 87.8%
viability, T/C (second compound 0.0316 µM, first compound 0.0999 µM): 92%
viability, T/C [2]: 77.2%
viability, T/C (second compound 0.1 µM, first compound 0.000999 µM): 119%
viability, T/C (second compound 0.1 µM, first compound 0.00316 µM): 99.2%
viability, T/C (second compound 0.1 µM, first compound 0.00999 µM): 113%
viability, T/C [3]: 112%
viability, T/C (second compound 0.1 µM, first compound 0.0999 µM): 91.6%
viability, T/C [4]: 64.7%
viability, T/C (second compound 0.316 µM, first compound 0.000999 µM): 112%
viability, T/C (second compound 0.316 µM, first compound 0.00316 µM): 114%
viability, T/C (second compound 0.316 µM, first compound 0.00999 µM): 97.7%
viability, T/C [5]: 94.3%
viability, T/C (second compound 0.316 µM, first compound 0.0999 µM): 108%
viability, T/C [6]: 91.1%
viability, T/C (second compound 1 µM, first compound 0.000999 µM): 120%
viability, T/C (second compound 1 µM, first compound 0.00316 µM): 113%
viability, T/C (second compound 1 µM, first compound 0.00999 µM): 89.5%
viability, T/C [7]: 89.3%
viability, T/C (second compound 1 µM, first compound 0.0999 µM): 91.1%
viability, T/C [8]: 72.3%
viability, T/C (second compound 3.16 µM, first compound 0.000999 µM): 106%
viability, T/C (second compound 3.16 µM, first compound 0.00316 µM): 99.7%
viability, T/C (second compound 3.16 µM, first compound 0.00999 µM): 96.7%
viability, T/C [9]: 73.4%
viability, T/C (second compound 3.16 µM, first compound 0.0999 µM): 75.3%
viability, T/C [10]: 57.1%
viability, T/C (second compound 10 µM, first compound 0.000999 µM): 96.1%
viability, T/C (second compound 10 µM, first compound 0.00316 µM): 100%
viability, T/C (second compound 10 µM, first compound 0.00999 µM): 102%
viability, T/C [11]: 75.4%
viability, T/C (second compound 10 µM, first compound 0.0999 µM): 86%
viability, T/C [12]: 68.7%
